Experiment [1] deals with α-Klotho gene-deficient mice. As to the kind of experiment: Survival rate of α-Klotho gene-deficient mice (Kaplan-Meier). Type of experiment: in vivo. As to conditions: oral, 10 mg/kg mouse weight/day from 28 days old until death. As to the method:
Water-suspended Compound #5 was orally administered to α-Klotho gene-deficient mice (28 days old) as a premature aging animal model at a dose of 10 mg/kg mouse weight/day, the progress was observed until death, and the survival rate was evaluated from a survival curve based on the Kaplan-Meier method (Klotho homo KO mouse administration group, n=9).
In addition, water was orally administered to α-Klotho gene-deficient mice (28 days old) until death (Klotho homo KO mouse non-administered group, n=9).

For a further experiment, the system named is PPARγ Gene. As to the kind of experiment: Quantitative PCR of PPARγ Gene in brown adipocytes of Ndufs4−/− mice. Type of experiment: in vivo, mouse. As to conditions: 10 mg/day per kg, 50 days, vs CMC administration group. The procedure: Compound #5 was administered to NDUFS4 homozygous knockout mice (Ndufs4−/−mice) (4 weeks old) at a dose of 10 mg/day per kg of mouse weight for 50 days ([Compound #5 administration group]).
In addition, CMC (carboxymethylcellulose) was administered to NDUFS4 homozygous knockout mice (Ndufs4−/−mice) at a dose of 10 mg/day per kg of mouse weight for 50 days ([CMC administration group; Control group]).
Brown adipocytes were collected from the mice of [Compound #5 administration group] and [CMC administration group]. Total RNA was extracted from the brown adipocytes, and cDNA was prepared therefrom and used for measurement of mRNA expression level. The measurement was performed by a quantitative PCR method. The expression level of mRNA was determined with a relative ratio to β-actin used as an internal standard. As primers and probes, the following commercially available products (manufactured by Thermo Fisher Scientific Inc., and the like) were used. • Mouse Acts (actin beta, β-actin) Mm02619580_g1, Cat #4331182 • Mouse Ucp1 (uncoupling protein 1), Mm00494069_m1, Cat #4331182 • Mouse Pparg (PPARγ, peroxisome proliferator activated receptor gamma), Mm00440945_m1, Cat #4331182p • Mouse Fabp4 (fatty acid binding protein 4), Mm00445880_m1, Cat #4331182

For a further experiment, the system named is liver cells of aged mice. Description: RNA-Seq and ChIP-Atlas analysis of liver cells of aged mice. The settings on record: oral, 50 mg/kg/day, 2 months, Table 4. Type of experiment: in vivo, mouse. As to the method:
Water-suspended Compound #5 was orally administered to C57BL6 mice (92 weeks old) at a dose of 50 mg/kg/day per kg of mouse weight for 2 months ([MA5 addition group], n=5). After 2 months of oral administration, the mice were 101 weeks old.
In addition, water was orally administered to C57BL6 mice (92 weeks old) for 2 months ([Vehicle group], n=5). After 2 months of oral administration, the mice were 101 weeks old.
RNA sequencing (RNA-Seq) analysis was performed on the liver cells of aged mice in [MA5 addition group] and [Vehicle group] to identify genes whose expression levels changed (increased or decreased) in [MA5 addition group] as compared with the […]. Using the results of these gene names, integrated analysis with ChIP-Atlas was performed to investigate transcription factors possibly related to these genes.

For experiment [2], the system named is Mouse inner ear cells HEI-OC1. As to the kind of experiment: RNA-Seq and ChIP-Atlas analysis of HEI-OC1 cells. In kind it is cell-based. As to conditions: 10 µM. As to the method: Mouse inner ear cells HEI-OC1 were cultured in 10% FBS-containing DMEM medium containing 10 µM of Compound #5 (dissolved in 0.1% DMSO) ([MA5 addition group], n=5).
In addition, mouse inner ear cells HEI-OC1 were cultured in 10% FBS-containing DMEM medium containing […] 0.1% DMSO ([Vehicle group], n=5).
RNA sequencing (RNA-Seq) analysis was performed on the HEI-OC1 cells in [MA5 addition group] and [Vehicle group] to identify genes whose expression levels changed (increased or decreased) in [MA5 addition group] as compared with [Vehicle group]. Using the results of these gene names, integrated analysis with ChIP-Atlas was performed to investigate transcription factors possibly related to these genes. The results of ChIP enrichment analysis (ChEA) are shown in Table 7, and the results of analysis by ENCODE and ChEA consensus TFs from ChIP-X are shown in Table 8.

Experiment [3] has as its system C57BL6 mice (12 weeks old). As to the kind of experiment: Treadmill running test of young mice. Type of experiment: in vivo, mouse. As to conditions: oral, 2 months; for decrease in the running time on a treadmill: young C57BL6 mice (12 weeks old); for time to exhaustion: young C57BL6 mice, compared to Vehicle group. As to the method: Water-suspended Compound #5 was orally administered to C57BL6 mice (12 weeks old) at a dose of 50 mg/kg/day per kg of mouse weight for 2 months ([MA5 high dose addition group], n=5).
Water-suspended Compound #5 was orally administered to C57BL6 mice (12 weeks old) at a dose of 10 mg/kg/day per kg of mouse weight for 2 months ([MA5 low dose addition group], n=5).
In addition, water was orally administered to C57BL6 mice (12 weeks old) for 2 months ([Vehicle group], n=5).

For the next experiment, the system named is SIRTI protein. As to the kind of experiment: Amount of SIRT1 protein in RH30 cells by Western blotting. Type of experiment: cell-based, human. As to conditions: 30 μM, 24 hours, compared with Control group (DMSO). The procedure: RH30 cells (human rhabdomyosarcoma cell line; gli gene expression+, N-myc gene expression+) at 1×10^6 cell/dish were seeded and cultured in a dish containing 10 mL of a culture solution (low-glucose-containing DMEM medium (glucose concentration of 1.0 g/dL) to which 10 wt. % of FBS was added). One day later, Compound #5 was added to have a concentration of 30 μM, and the mixture was cultured for 24 hours ([Compound #5 addition group]). Compound #9, Compound #13, Compound #21, Compound #30, or Compound #35 as the present compound was added in place of Compound #5, and the mixture was cultured in the same manner, respectively, as [Compound #9 addition group], [Compound #13 addition group], [Compound #21 addition group], [Compound #30 addition group], and […].
On the other hand, as a control, DMSO (dimethyl sulfoxide) was added to have a concentration of 0.2 wt. %, and the mixture was cultured for 24 hours ([Control group]).
After completion of culture, the cells were recovered, disrupted by a typical method, and the amount of each of the proteins (SIRTI proteins, etc.) in the cells was detected by Western blotting. Further, the results of quantification of each band in the detection results of the Western blotting in FIG. 6 through normalization with the band of β-actin as a loading control are shown in FIG. 7.
(A western blot detects proteins with antibodies after separation by electrophoresis.)

Turning to `O=C(CC(C(=O)O)c1c[nH]c2ccccc12)c1ccc(F)cc1F` (stereo not shown) [Compound #5, 4-(2,4-difluorophenyl)-2-(1H-indole-3-yl)-4-oxo-butanoic acid], in experiment [1], the survival rate result is listed as “significantly increased”. In addition, the “expression of PPARγ Gene” value in the experiment on PPARγ Gene is listed as “significantly higher”. Besides, the “transcription factors related to genes whose expression increased (ChIP-Atlas)” value with liver cells of aged mice was “FOXO1 known as longevity genes and PPARA”. The “transcription factors related to genes whose expression increased (ChIP enrichment analysis, ChEA)” value in experiment [2] (Table 7) is “SUZ^12 and EZH2, which are factors constituting polycomb repressive complex-2 (PRC2), which methylates histones, and SOX2”. In experiment [2] (Table 8), the “transcription factors related to genes whose expression increased (ENCODE and ChEA consensus TFs from ChIP-X)” value was “PPARG (peroxisome proliferator-activated receptor γ), which is a longevity-related gene, MYC, which is one of the reprogramming factors necessary for the production of iPS cells, TRIM28”. Further, the “decrease in the running time on a treadmill” value in experiment [3] (10 mg/kg/day (low dose)) and in experiment [3] (50 mg/kg/day (high dose)) was “inhibited” in each case. In addition, the time to exhaustion entry in experiment [3] (10 mg/kg/day (low dose)) and in experiment [3] (50 mg/kg/day (high dose)) was “significantly improved” each time. Moreover, in the experiment on SIRTI protein, the “amount of SIRTI protein in cells” value was “increased”.
